Data on 23 compounds can be found in ChEMBL document CHEMBL4425168, “Dehydrozingerone Inspired Styryl Hydrazine Thiazole Hybrids as Promising Class of Antimycobacterial Agents” (ACS Med Chem Lett, 2016).

Structures are written as SMILES. ≈ marks a conversion by molar mass, not a printed value. Some results are limits rather than exact numbers.

For assay [1], the system named is Mycobacterium tuberculosis. In words: Antitubercular activity against Mycobacterium tuberculosis H37Rv after 7 days by broth macrodilution assay. In kind it is functional. To be noted: 168 h.
In assay [2] the test system is Mycobacterium tuberculosis. In words: Antitubercular activity against Mycobacterium tuberculosis H37Rv by microplate Alamar blue assay. In kind it is functional. (In general: The colour change of resazurin is a common sign of viable cells or microbes.)
The subject of assay [3] is Mycobacterium tuberculosis. In words: Antitubercular activity against Mycobacterium tuberculosis H37Rv assessed as bacterial growth inhibition in aerobic conditions by dual read out fluorescence assay. The class given is functional.
The test system of assay [4] is Mycobacterium tuberculosis. In words: Antitubercular activity against Mycobacterium tuberculosis H37Rv assessed as bacterial growth inhibition under aerobic conditions after 5 days by dual read-out fluorescence assay. The class given is functional, organism-based. To be noted: 120 h.
In assay [5] the test system is Mycobacterium tuberculosis. Briefly: Antitubercular activity against oxygen-deprived Mycobacterium tuberculosis H37Rv assessed as bacterial growth inhibition preincubated for 10 days under anaerobic conditions followed by incubation under aerobic conditions for 28 hrs by LOR assay. The class given is functional, organism-based.
Assay [6] concerns Mycobacterium tuberculosis. In words: Antitubercular activity against Mycobacterium tuberculosis H37Rv INH-R2 ATCC 35822 after 5 days. In kind it is functional, organism-based.
Assay [7] relates to Mycobacterium tuberculosis. In words: Antitubercular activity against Mycobacterium tuberculosis H37Rv RIF-R2 ATCC 35828 after 5 days. In kind it is functional, organism-based. To be noted: H37Rv RIF-R2 ATCC 35828, 120 h.
Assay [8] concerns Mycobacterium tuberculosis. Briefly: Antitubercular activity against oxygen-deprived Mycobacterium tuberculosis H37Rv assessed as bacterial growth inhibition incubated for 5 days under aerobic conditions by LOR assay. In kind it is functional, organism-based. To be noted: 120 h.
Assay [9] relates to Mycobacterium tuberculosis. In words: Antitubercular activity against Mycobacterium tuberculosis H37Rv expressing luxABCDE infected in differentiated human THP1 cells assessed as reduction in bacteria infected cells after 72 hrs by luminescence assay. In kind it is functional, organism-based. To be noted: THP-1, 72 h.
In assay [10] the test system is THP-1. In words: Cytotoxicity in differentiated human THP1 cells assessed as reduction in cell viability after 3 days by CellTiter-Glo assay. To be noted: THP-1, 72 h. The class given is cell-based. In general terms: Cellular ATP, detected with luciferase, serves as a proxy for viable cell number.
Assay [11] deals with Mycobacterium avium. In words: Antibacterial activity against Mycobacterium avium assessed as reduction in bacterial metabolic activity after 5 days by Alamar blue assay. In kind it is functional. To be noted: 120 h.
In assay [12] the test system is Mycobacterium tuberculosis. Briefly: Bactericidal activity against replicating Mycobacterium tuberculosis H37Rv assessed as reduction in colony forming units incubated for 21 days. In kind it is functional. To be noted: 504 h.
Assay [13] deals with Mycobacteroides abscessus. In words: Antibacterial activity against Mycobacterium abscessus assessed as bacterial growth inhibition after 3 days by MABA method. To be noted: 72 h. The class given is functional.
Assay [14] deals with Mycobacterium tuberculosis. Briefly: Antitubercular activity against Mycobacterium tuberculosis H37Rv by radiometric assay. In kind it is functional.
Where [15] appears, read: Mycobacterium tuberculosis, H37Rv INH-R2 ATCC 35822, 120 h.

Turning to `COC(=O)c1nc(N)sc1Cc1ccccc1`, the MIC in [1] turned out to be 0.06 µg/mL (≈ 0.242 µM).
For the compound `CC(=O)c1nc(/C=C/c2ccccc2)c2ncn(Cc3ccccc3)c2n1`, the lowest concentration to inhibit growth in assay [2] (MIC) was 6.25 µM (≈ 2.22 µg/mL).
With `COc1ccc(-c2csc(N/N=C/c3ccc4c(c3)c3ccccc3n4C)n2)cc1OC`, the MIC in assay [3] was determined as 21 µM (≈ 9.29 µg/mL).
For the compound `COc1ccc(/C=C/C(C)=N/Nc2nc(-c3cc(F)ccc3O)cs2)cc1OC`, in assay [4], the MIC lay within 1.5 to 200 µM (≈ 0.62 to 82.7 µg/mL).
As for `COc1ccc(/C=C/C(C)=N/Nc2nc(-c3ccc(N)cc3)cs2)cc1OC`, the IC50 is 0.063 µM in [5]; 0.38 µM in assay [6] (setting [15]); 0.76 µM in assay [7]; 0.097 µM in assay [8]; less than 0.098 µM in assay [9]; 11 µM in assay [10]. Moreover, the MIC in assay [5] is 46 µM (≈ 18.1 µg/mL); in assay [4], 1.5 to 200 µM (≈ 0.592 to 78.9 µg/mL); in assay [6] (setting [15]) it was 1.5 µM (≈ 0.592 µg/mL); in [7], 6.3 µM (≈ 2.49 µg/mL); in assay [8], 0.28 µM (≈ 0.11 µg/mL); in [11] it was 100 µM (≈ 39.5 µg/mL). The IC90 was 1.7 µM in assay [6] (setting [15]) and 9.2 µM in assay [7]. In addition, the MBC in assay [12] was determined as 12 µM (≈ 4.73 µg/mL).
Consider `COc1ccc(/C=C/C(C)=N/Nc2nc(-c3ccc(C)cc3)cs2)cc1OC`, for which the MIC in assay [4] was in the range of 1.5 to 200 µM (≈ 0.59 to 78.7 µg/mL).
As for `COc1ccc(/C=C/C(C)=N/Nc2nc(-c3ccc(Cl)c(Cl)c3)cs2)cc1OC`, the MIC in assay [4] is greater than 200 µM.
`COc1ccc(/C=C/C(C)=N/Nc2nc(-c3cccc(C(F)(F)F)c3)cs2)cc1OC`: in assay [4], the minimal inhibitory concentration (MIC) is greater than 200 µM.
In the case of `COc1ccc(/C=C/C(C)=N/NC(N)=S)cc1OC`, the IC50 in assay [5] was 0.19 µM; in [4] it was 0.98 µM; in assay [6] (setting [15]), 0.79 µM; in assay [7], 1.2 µM; in [8], 0.15 µM; in [9] it was less than 0.098 µM. Also, the IC50 in [10] lay in the range of 11 to 50 µM. Further, the MIC in assay [5] was 29 µM (≈ 8.1 µg/mL); in [4] it was 1.5 to 200 µM (≈ 0.419 to 55.9 µg/mL); in [6] (setting [15]) it was 2.5 µM (≈ 0.698 µg/mL); in assay [7] it was 4.8 µM (≈ 1.34 µg/mL); in assay [8] it was 0.5 µM (≈ 0.14 µg/mL); in assay [13] it was greater than 200 µM. Also, the MIC in [11] is greater than 200 µM. Besides, the IC90 was found to be 2.9 µM in assay [6] (setting [15]) and 5.9 µM in assay [7]. Moreover, in [12], the MBC is 6 µM (≈ 1.68 µg/mL).
Turning to `COc1ccc(/C=C/C(C)=N/Nc2nc(-c3ccc(OC)c(OC)c3)cs2)cc1OC`, the IC50 in [4] turned out to be 7.4 µM; in [6] (setting [15]), 7.1 µM; in assay [7] it was 19 µM; in [10] it was 38 µM. Also, the MIC is 16 µM (≈ 7.03 µg/mL) in assay [4]; 13 µM (≈ 5.71 µg/mL) in assay [6] (setting [15]); 46 µM (≈ 20.2 µg/mL) in [7]; greater than 200 µM in [13]; greater than 200 µM in assay [11]. In addition, the figures for the IC90 in assay [6] (setting [15]) and in assay [7] were 12 µM and greater than 200 µM, respectively.
As for `COc1ccc(-c2csc(N/N=C(C)/C=C/c3ccc(OC)c(OC)c3)n2)cc1`, the concentration for half-maximal inhibition (IC50) is 8.4 µM in assay [4], 8 µM in [6] (setting [15]), 8.7 µM in assay [7] and 11 to 50 µM in [10]. Moreover, the MIC in assay [4] was 15 µM (≈ 6.14 µg/mL); in [6] (setting [15]) it was 12 µM (≈ 4.91 µg/mL); in [7] it was 31 µM (≈ 12.7 µg/mL); in assay [13], greater than 200 µM; in [11], greater than 200 µM. Also, the 90% effect concentration (IC90) in [6] (setting [15]) and in [7] was greater than 50 µM in each case.
Regarding `COc1ccc(/C=C/C(C)=N/Nc2nc(-c3ccccc3O)cs2)cc1OC`, in assay [4], the half-maximal inhibitory concentration (IC50) amounted to 24 µM and the MIC came to 40 µM (≈ 15.8 µg/mL).
Regarding `COc1ccc(/C=C/C(C)=N/Nc2nc(-c3ccccc3)cs2)cc1OC`, the MIC in assay [4] was in the range of 1.5 to 200 µM (≈ 0.569 to 75.9 µg/mL).
In the case of `COc1ccc(/C=C/C(C)=N/Nc2nc(-c3c(OC)cccc3OC)cs2)cc1OC`, the IC50 is 6.6 µM in [4], 5.6 µM in assay [6] (setting [15]), 10 µM in assay [7] and 11 to 50 µM in assay [10]. The MIC is 28 µM (≈ 12.3 µg/mL) in [4]; 19 µM (≈ 8.35 µg/mL) in [6] (setting [15]); 41 µM (≈ 18 µg/mL) in [7]; greater than 100 µM in [13]; greater than 100 µM in [11]. In addition, the IC90 in assay [6] (setting [15]) and in assay [7] was greater than 25 µM in each case.
As to `O=[N+]([O-])c1ccc2nc(-c3ccccc3-c3nnc(/C=C/c4ccccc4)o3)[nH]c2c1`, 12.5 µg/mL (≈ 30.5 µM) was the least that counted as inhibitory in assay [14] (MIC).
For `COc1ccc(/C=C/C(C)=N/Nc2nc(-c3ccc(Br)cc3)cs2)cc1OC`, the MIC in [4] was greater than 200 µM.
Still for that read-out and setting: next, `COc1ccc(/C=C/C(C)=N/Nc2nc(-c3ccc([N+](=O)[O-])cc3)cs2)cc1OC`: greater than 200 µM.
As for `COc1ccc(O)c(-c2csc(N/N=C(C)/C=C/c3ccc(OC)c(OC)c3)n2)c1`, in assay [4], the IC50 came out at 23 µM and the MIC is 88 µM (≈ 37.4 µg/mL).
Turning to `COc1ccc(/C=C/C(C)=N/Nc2nc(-c3cc(Br)ccc3O)cs2)cc1OC`, in assay [4], the MIC fell in the range of 1.5 to 200 µM (≈ 0.712 to 94.9 µg/mL).
As for `COc1ccc(/C=C/C(C)=N/Nc2nc(-c3ccc(Cl)cc3)cs2)cc1OC`, the MIC in [4] was 1.5 to 200 µM (≈ 0.621 to 82.8 µg/mL).
As to `NNC(=O)c1ccncc1` [ISONIAZID], in assay [6] (setting [15]), the IC50 is greater than 200 µM, the IC90 was greater than 200 µM and the minimal inhibitory concentration (MIC) is greater than 200 µM. Moreover, in [7], the IC50 was found to be 0.54 µM, it took 0.6 µM to reach the 90% level (IC90) and it took 0.62 µM (≈ 0.085 µg/mL) to inhibit growth (MIC).
Take `C[C@H]1COc2c(N3CCN(C)CC3)c(F)cc3c(=O)c(C(=O)O)cn1c23.C[C@H]1COc2c(N3CCN(C)CC3)c(F)cc3c(=O)c(C(=O)O)cn1c23.O` [LEVOFLOXACIN]: in assay [6] (setting [15]), the IC50 turned out to be 0.84 µM, the 90% effect level (IC90) was put at 1.4 µM and the lowest concentration to inhibit growth (MIC) was 1.4 µM. Further, in assay [7], half-maximal inhibition (IC50) was put at 0.6 µM, the IC90 stood at 1.2 µM and the MIC is 1.1 µM.
Consider `CO[C@H]1/C=C/O[C@@]2(C)Oc3c(C)c(O)c4c(O)c(c(/C=N/N5CCN(C)CC5)c(O)c4c3C2=O)NC(=O)/C(C)=C\C=C\[C@H](C)[C@H](O)[C@@H](C)[C@@H](O)[C@@H](C)[C@H](OC(C)=O)[C@@H]1C` [RIFAMPIN], for which the MIC was 1.5 to 200 µM (≈ 1.23 to 165 µg/mL) in assay [4], 0.0065 µM (≈ 0.00535 µg/mL) in assay [6] (setting [15]), greater than 50 µM in [7] and 0.1 µM (≈ 0.0823 µg/mL) in assay [11]. Further, the IC90 was 0.012 µM in [6] and greater than 50 µM in assay [7]. Also, the concentration for half-maximal inhibition (IC50) in [6] (setting [15]) is 0.0047 µM; in assay [7] it was greater than 50 µM.

In general, MIC refers to the smallest concentration in the dilution series that meets the test's criterion for growth inhibition. The term IC50 denotes the concentration that inhibits the measured activity by half. By IC90 is commonly meant the concentration needed for an effect of 90%. A higher IC90 goes with a need for much substance. As a reminder, the MBC is the smallest concentration meeting the test's criterion for killing.
